From patent US8389268B2, “Method and culture medium for enhanced detection of mycobacterium” (priority 2009, dated 2013)
Several values for one entry are separate records, joined by “and”; a condition that tells them apart may be missing. Equal values may be shown once. Read-outs that look alike come from different tables or passages of the source.

Assays:
mycobacteria = type: cell-based, Mycobacterium species
M. intracellulare 13950 = assay: Time to detection (TTD) of growth in BacT/ALERT MP culture bottles; type: cell-based, Mycobacterium intracellulare; details: for # Positive: of 4.0 tested
M. avium 25291 = assay: as above; type: cell-based, Mycobacterium avium; details: for # Positive: of 4.0 tested
MTB 27294 = assay: as above; type: cell-based, Mycobacterium tuberculosis; details: for # Positive: of 4.0 tested
MTB 25177 = assay: as above; type: cell-based, Mycobacterium tuberculosis; details: for # Positive: of 4.0 tested
Experimental: For Growth Performance, […] organisms (M. tuberculosis, M. avium, and M. intracellulare) were tested. The conventional MAS formulation was used for these experiments. The new supplement with/without FA supplementation and conventional/old RF were used to rehydrate a lyophilized powder of the conventional or old MB BacT antibiotic supplement (conventional/old MAS) (bioMérieux, Inc.).
For the new supplement, the new, autoclavable BacT/ALERT® MP bottle (as described hereinabove) was used and for conventional/old RF, the conventional/old MP bottle was used. Before the inoculation of new and conventional/old MP culture bottles (bioMérieux, Inc.) with mycobacteria cultures, 0.5 ml of new supplement with/without FA or 0.5 ml of conventional/old RF were added to one set of the BacT/ALERT® MP culture bottles. The rehydrated conventional MAS (using new supplement with/without FA and conventional/old RF) was added to the second set of MP culture bottles. The growth (as TTD of growth) was compared in these bottles for Mycobacterium avium, Mycobacterium intracellulare and Mycobacterium tuberculosis cultures after inoculating with approximately 0.5×10^3 CFU/ml.
For the new MAS formulas and NS, a new, autoclaved BacT/ALERT® MP bottle (as described hereinabove) was used and for conventional/old RF, conventional/old MP bottle (bioMérieux, Inc.) was used. […] The conventional MAS (using conventional/old RF) and new MAS formulas (using NS) were added to the second set of MP culture bottles.
The mycobacteria inoculum was 0.5×10^3 CFU/ml.

M. scrofulaceum 19981 = assay: as above; type: cell-based, Mycobacterium scrofulaceum
M. kansasii 12478 = assay: as above; type: cell-based, Mycobacterium kansasii; details: for # Positives / # Positive: of 4.0 tested
M. fortuitum 6841 = assay: as above; details: for # Positives / # Positive: of 4.0 tested
[1] = tested on: contaminating respiratory flora (CRF); assay: Suppression of contaminating respiratory flora (CRF), growth or no growth in BacT/ALERT MP culture bottles; type: cell-based, gram positive or gram negative bacterial and yeast cultures; details: screen of various drugs

## CC(O)C(=O)O (centres unmarked) [lactate]
mycobacteria
  reduction in TTD: did not show a reduction in TTD

## CN[C@H](CC(C)C)C(=O)N[C@H]1C(=O)N[C@@H](CC(N)=O)C(=O)N[C@H]2C(=O)N[C@H]3C(=O)N[C@H](C(=O)N[C@H](C(=O)O)c4cc(O)cc(O)c4-c4cc3ccc4O)[C@H](O)c3ccc(c(Cl)c3)Oc3cc2cc(c3O[C@@H]2O[C@H](CO)[C@@H](O)[C@H](O)[C@H]2O[C@H]2C[C@](C)(N)[C@H](O)[C@H](C)O2)Oc2ccc(cc2Cl)[C@H]1O [VAN, vancomycin]
M. intracellulare 13950
  # Positives: 4.0
  Average TTD: 9.4 days and 9.7 days and 10.3 days
M. avium 25291
  # Positives: 4.0 and 3.0
  Average TTD: 20.6 days and 21.2 days
MTB 27294
  # Positives: 4.0
  Average TTD: 16.3 days and 16.0 days and 18.3 days
MTB 25177
  # Positives: 2.0
  Average TTD: 23.7 days
mycobacteria
  effect on growth (as determined by TTD of growth): negative effect on the growth
M. scrofulaceum 19981; Table 5, Media + VAN 1.75
  Average TTD: 14.2 days
M. scrofulaceum 19981; Table 5, Media + VAN 1.75, of 4.0 tested
  # Positives: 4.0
M. scrofulaceum 19981; Table 5, Media + VAN 3.5
  Average TTD: 14.0 days
M. scrofulaceum 19981; Table 5, Media + VAN 3.5, of 4.0 tested
  # Positives: 4.0
M. scrofulaceum 19981; Table 5, Media + VAN 7
  Average TTD: 15.3 days
M. scrofulaceum 19981; Table 5, Media + VAN 7, of 1.0 tested
  # Positives: 1.0
M. kansasii 12478; Table 5, Media + VAN 1.75
  # Positives: 4.0
M. kansasii 12478; Table 5, Media + VAN 3.5
  Average TTD: 21.5 days
  # Positives: 2.0
M. fortuitum 6841; Table 5, Media + VAN 1.75
  Average TTD: 4.7 days
  # Positives: 4.0
M. fortuitum 6841; Table 5, Media + VAN 3.5
  Average TTD: 4.1 days
  # Positives: 4.0
M. fortuitum 6841; Table 5, Media + VAN 7
  Average TTD: 4.8 days
  # Positives: 4.0

## O=C(O)C[C@H](O)C(=O)O [L-malate]
mycobacteria
  reduction in TTD: did not show a reduction in TTD

## O=C(O)CCC(=O)C(=O)O [α-keto glutarate, α-ketoglutarate]
M. intracellulare 13950
  Avg. TTD: 9.0 days and 8.8 days
  No. of positives: 3
M. avium 25291
  Avg. TTD: 13.5 days and 13.8 days
  No. of positives: 3
MTB 27294
  Avg. TTD: 14.3 days and 13.9 days
  No. of positives: 3
mycobacteria
  reduction in time to detection (TTD) of growth: approximate two days reduction

## CC1(C)S[C@@H]2[C@H](NC(=O)[C@H](NC(=O)N3CCNC3=O)c3ccccc3)C(=O)N2[C@H]1C(=O)O [AZL, azlocillin]
M. intracellulare 13950; Table 4, Media + AZL 12
  Average TTD: 16.4 days
  # Positive: 4.0
M. intracellulare 13950; Table 4, Media + AZL 24
  Average TTD: 19.8 days
  # Positive: 4.0
M. intracellulare 13950; Table 4, Media + AZL 48
  Average TTD: 20.0 days
  # Positive: 2.0
M. avium 25291; Table 4, Media + AZL 12
  Average TTD: 20.1 days
  # Positive: 4.0
M. avium 25291; Table 4, Media + AZL 24
  Average TTD: 22.2 days
  # Positive: 4.0
M. avium 25291; Table 4, Media + AZL 48
  Average TTD: 21.2 days
  # Positive: 4.0
MTB 27294; Table 4, Media + AZL 12
  Average TTD: 15.4 days
  # Positive: 4.0
MTB 27294; Table 4, Media + AZL 24
  Average TTD: 16.0 days
  # Positive: 4.0
MTB 27294; Table 4, Media + AZL 48
  Average TTD: 15.4 days
  # Positive: 4.0
MTB 25177; Table 4, Media + AZL 12
  Average TTD: 22.4 days
  # Positive: 4.0
MTB 25177; Table 4, Media + AZL 24
  Average TTD: 23.8 days
  # Positive: 2.0
MTB 25177; Table 4, Media + AZL 48
  Average TTD: 24.8 days
  # Positive: 2.0
mycobacteria
  effect on growth (as determined by TTD of growth): negative effect on the growth
M. scrofulaceum 19981; Table 4, Media + AZL 12
  Average TTD: 24.2 days
M. scrofulaceum 19981; Table 4, Media + AZL 12, of 4.0 tested
  # Positive: 2.0
M. scrofulaceum 19981; Table 4, Media + AZL 48
  Average TTD: 21.7 days
M. scrofulaceum 19981; Table 4, Media + AZL 48, of 3.0 tested
  # Positive: 1.0
M. kansasii 12478; Table 4, Media + AZL 12
  Average TTD: 18.5 days
  # Positive: 3.0
M. kansasii 12478; Table 4, Media + AZL 24
  Average TTD: 18.9 days
  # Positive: 4.0
M. kansasii 12478; Table 4, Media + AZL 48
  Average TTD: 20.5 days
  # Positive: 1.0
M. fortuitum 6841; Table 4, Media + AZL 12
  Average TTD: 4.0 days
  # Positive: 4.0
M. fortuitum 6841; Table 4, Media + AZL 24
  Average TTD: 4.2 days
  # Positive: 4.0
M. fortuitum 6841; Table 4, Media + AZL 48
  Average TTD: 4.1 days
  # Positive: 4.0

## N=C(N)NCCC[C@H](N)C(=O)O [L-arginine]
mycobacteria
  reduction in TTD: did not show a reduction in TTD

## O=C(O)CC(=O)C(=O)O [oxaloacetic acid]
mycobacteria
  reduction in TTD: did not show a reduction in TTD

## C[C@@H]1O[C@@H]1P(=O)(O)O [fosfomycin]
[1]
  ability to suppress contaminating respiratory flora (CRF): best choice for suppression of CRF
